According to patent US20120114596A1, “TSLP PROMOTES IMMUNE EVASION AND PERSISTENCE OF VIRUSES” (priority 2009, published 2012):
Entries after “also recorded” stand apart in the source; their conditions may differ.

Columns and labels:
[1] = system: TSLP expression; conditions: cited from earlier work
[2] = system: CD11c+ DCs; format: cell-based, human
[3] = system: DCs; test: DC polarization / cytoskeleton architecture by epifluorescence microscopy; format: cell-based, human
[4] = system: DCs; test: DC motility in micro-channel system (confined environment); format: cell-based, human
Excerpt: A tissue represents a confined environment for cell migration (Irimia et al., Lab Chip, 2007, 7, 1783-1790). Cells may be “trapped” in narrow spaces, being forced to pass through areas of diverse densities. In order to mimic such in vivo situation, a micro-channel system was used. This system allows quantifying diverse parameters to define the cell movement and to restrain the direction of the mobile cells.
The microfluidic device was fabricated in PDMS (Whitesides G. M., E., O., Takayama S., X., J. & E, I. D. Ann Rev Biomed Eng, 2001 3, 335). The PDMS piece, with embedded microchannels and holes for the inlet and outlet ports, and a glass Iwaki chamber (Milian) were activated in a plasma cleaner (PDC-32G Harrick) and bonded to each other. The chambers were left under strong vacuum for 5 min in the plasma cleaner and plasma was turned on to render the top surface of the PDMS and the inlet and outlet holes hydrophilic. Fibronectin solution at 50 μg/ml was placed on top of the inlet and outlet ports. The solution spontaneously invaded the channels and all air bubbles were resorbed into the PDMS due to the previous vacuum treatment. Fibronectin was incubated for 1 h at room temperature, then washed with PBS then replaced by cell culture medium. The cells were concentrated and micropipette tips containing the cells were inserted in the inlet port. Cells fell inside the port, bound to the bottom coverslip and started migrating. They entered the channels spontaneously, without any mechanical or chemical stimulation.
Phase contrast […], using an automated microscope (Nikon ECLIPSE TE1000-E, and Olympus X71, with a Marzhauser motorized stage and an HQ2 Roper camera) equipped with an environmental chamber for temperature, humidity and CO2 (Life Imaging Services). Cells remained alive and motile during the entire period of recording.
To analyse the importance of myosin II in DCs migration, cells were pre-treated with […] blebbistatin and then concentrated and inserted in the microchannels.

[5] = system: Langerhans cells (LC); test: Epidermal explant model of LC emigration; format: cell-based, human; conditions: FIGS. 2B and C
Excerpt: Next, epidermal explants were used as a global model to study the emigration of LC.

[6] = system: naive CD4+ T cells; test: Priming of naive CD4+ T cells by activated DCs, T cell cytokine profile; format: cell-based, human; conditions: DC:T 1:5, 5-6 days, re-stimulation
Method: After 24 h of culture, stimulated CD11c^+ DCs were collected, washed, and co-cultured with allogenic naïve CD4^+ T cells in round-bottomed plates 96-well culture plates (Falcon) at a 1:5 DC: T cell ratio in Yssel's medium (kind gift of Hans Yssel) containing 10% FCS (Hyclone). Peripheral blood naïve CD4^+ T cells were isolated by using CD4 T cell isolation kit II (Miltenyi Biotec) followed by staining for CD45RO-FITC, CD45RA-PE, CD4-APC, and cell sorting of CD45RA^+, CD4^+, CD45RO^− cells (purity>99%) with a FACSAria (BD Bioscience). Standard Th subsets were generated in presence of Dynabeads CD3/CD28 T cell expander (1 bead per cell) (Invitrogen) and 10 ng/ml IL-12 (R&D Systems) for Th1, 25 ng/ml IL-4 (R&D Systems) for Th2 and in absence of any polarizing cytokine for Th0.
After 5-6 days, cells were harvested, extensively washed and viability was determined by trypan blue exclusion. […] Cytokines in culture supernatants were measured by cytometric bead assay (CBA) Flex Sets (BD Bioscience) according to the manufacturer's instruction. IFN-γ-, IL-4-, IL-10-, TNF-producing cells were analysed by intracellular cytokine staining after addition of 10 μg/ml Brefeldin during the last 3 h of re-stimulation. […] Cells were stained with anti-IFN-γ FITC, anti-IL-4 PE, anti-IL-10 PE, anti-TNF PE (BD Pharmingen) washed and then analysed by flow cytometry (FACScan Becton Dickinson).

[7] = system: DCs; test: DC activation by surface expression of CD40, CD80, CD86, OX40L

CC1=C(/C=C/C(C)=C\C=C\C(C)=C\C(=O)O)C(C)(C)CCC1 [9-cis-retinoic acid]
regulation of TSLP expression [1]: negative regulators of TSLP expression

Cc1ccc2c(c1)C(=O)C1(O)CCN(c3ccccc3)C1=N2 (centres unmarked) [blebbistatin, reference compound]
blebbistatin dose inhibiting TSLP-induced DC migration [2]: 20 nM | morphology of TSLP-DCs under myosin II inhibition ([3]; TSLP with 20 nM blebbistatin, 12 h): extremely elongated cellular shape | effect on TSLP-induced DC entry into micro-channels ([4]; blebbistatin 50 nM pre-culture): significantly inhibited

c1ccc2ncncc2c1 [quinazoline]
regulation of TSLP expression [1]: negative regulators of TSLP expression

TSLP: cytokine of the IL-7 family produced by epithelial cells; recombinant from R&D Systems
DC migration in transwell [2]: highly efficient for migration | time after TSLP exposure at which migration started [2]: 3 h | migration of CD1a+ Langerin+ TSLP-receptor+ CD80+ cells from epidermal explants [5]: significantly increased; also recorded: more efficient than TNFa | DC polarization (actin cytoskeleton morphology) [3]: extremely polarized | increase in capacity of DCs to enter micro-channels vs control medium ([4]; 3 h time-lapse, n=3): 4 fold | median velocity of DC in micro-channels vs medium ([4]; DC pre-cultured in medium or TSLP): no significant difference | T cell cytokine profile induced by activated DC [6]: Th2 profile | DC activation based on surface CD40, CD80 and CD86 ([7]; 24 h of culture): strong up-regulation | surface OX40-ligand (OX40L) expression on DC ([7]; 48 h of culture): up-regulation
